Data as given in patent US11660270B2, “Nanoparticle compositions” (Indiana University Research and Technology Corporation, priority 2017, dated 2023).

Columns and labels:
[1] = in vivo; cited from earlier work
[2] = Solvent screening for dissolving drugs and polymers; type: physicochemical; settings: added to 1 ml of test solvent, vortex; smallest amount of solvent for immediate solubilization
Description: The following solvents were compared for use as drug solvents in nanoprecipitation: acetone, ethanol, tetrahydrofuran (THF), acetic acid, acetonitrile, dimethylsulfoxide (DMSO), dimethylformamide (DMF), N-methylpyrrolidone (NMP), methanol, n-propanol and isopropanol.
Chloroform, dichloromethane (DCM), ethanol, acetone, methanol and ethyl acetate were tested as polymer solvents.
Drugs (thyrotropin-releasing hormone (TRH), oxytocin, and luteinizing hormone-releasing hormone (LHRH)) and polymers (polysebacic acid, and PLGA (poly(lactide-co-glycolide)) with either a 1:1 or 3:1 molar ratio of lactide to glycolide) were added to 1 ml of test solvent and stirred vigorously by vortex.

best solvent for dissolving [2] | Compound | plasma half-life [1]
Ethanol | NC(=O)[C@@H]1CCCN1C(=O)[C@H](Cc1cnc[nH]1)NC(=O)[C@@H]1CCC(=O)N1 [TRH, pyroglutamyl-histidyl-proline-amide] | about 8 minutes
acetic acid | CC[C@H](C)[C@@H]1NC(=O)[C@H](Cc2ccc(O)cc2)NC(=O)[C@@H](N)CSSC[C@@H](C(=O)N2CCC[C@H]2C(=O)N[C@@H](CC(C)C)C(=O)NCC(N)=O)NC(=O)[C@H](CC(N)=O)NC(=O)[C@H](CCC(N)=O)NC1=O [oxytocin] | –

Compound | best solvent for dissolving [2] | plasma half-life [1]
luteinizing hormone-releasing hormone [LHRH] | acetic acid | –
